From patent publication US6953671B2, “Plasma phospholipid transfer protein (PLTP) deficiency represents an anti-atherogenic state and PLTP inhibitor has anti-atherosclerosis action” (The Trustees of Columbia University in the City of New York, priority 2001, dated 2005)
Where a SMILES comes first, the peptide text is derived from it. [ ]: non-standard residue; d: D form. Nle = CCCC[C@H](N)C(=O)O

How the values were obtained:
[1] = tested on: hepatocytes from apoBTg/PLTP0 and apoBTg mice; assay: apoB in cell lysates of radiolabeled primary hepatocytes with or without ALLN; type: cell-based, mouse; conditions: 40 μg/ml ALLN, 30 min labeling; especially PLTP deficient cells
Description: (§1) Primary hepatocyte culture, immunoprecipitation and analysis of apoB or albumin from culture medium or cel lysate were performed as described previously^18. A, pulse change experiment, apoB in the cell media; B, pulse chase experiment, apoB in the cell lysate; C, determination of apoB secretion rate in the presence and absence of the proteoscflal inhibitor ALLN. Hepatocytes from apoBTg/PLTP0 and apoBTg mice were radiolabeled continuously with ^35Smethionine/cystein with or without 40 μg/ml ALLN fcr 30 mm. Cells ware lysed and lysates immunoprecipitated with apoB antibody. Samples were separated on SDS PAGE. D, determination of apoB secretion rate in the presence and absence of heparin. Hepatocytes from apoBTG/PLTP0 and apoBTg mice were radiolabeled continuously with ^35Smethionine/cystein with or without 10 mg/ml heparin for 3 hr. […]
(§2) Immunoprecipitation and analysis of apoB from culture medium or cell lysate: The primary hepatocytes were allowed to attach to dishes for 90 minutes. […] At each chase time point (30 minutes, 1 hour and 2 hours), medium apoB and cell lysate apoB were immunoprecipitated by apoB antibody together with protein A/G agarose, the precipitates were size-fractionated on a 4% SDS PAGE gel, the gel was dried, and the incorporation of ^35S into apoB48 and apoB100 was assessed with a Fuji Bio-Imaging Analyzer (Fuji Medical Systems, Stamford, Conn.).

[2] = tested on: hepatocytes from apoBTg/PLTP0 and apoBTg mice; assay: apoB/BLp accumulation in media of primary hepatocytes with or without heparin; type: cell-based, mouse; conditions: 10 mg/ml heparin, 3 hr
Description: as §1, §2

[3] = biological target: plasma phospholipid transfer protein (PLTP) (UniProt P55065); assay: PLTP inhibition assay (radiolabeled phospholipid transfer from vesicles to HDL by plasma); type: biochemical; conditions: 3 μl plasma, 0-50 μM compound, 400 μl assay
Description: PLTP activity assays: Egg phosphatidylcholine (10 μmol) containing 10 nmol of [3H]PC (L-a-dipalmitoyl-[2-palmitoyl-9,10-3H(N)]-phosphatidylcholine) was dried under a stream of nitrogen, resuspended in 1 ml of a solution of 10 mM Tris, 150 mM NaCl, 1 mM ethylenediaminetetraacetic acid (EDTA) (pH 7.4), and then probe-sonicated and centrifuged. Transfer of radiolabeled phospholipid was measured by incubating 3 μl of plasma with radiolabeled phospholipid vesicles (125 nmol PC) and HDL (250 μg protein) in a final volume of 400 μl at 37° C. for 1 hour.
The following compound, which is a known cholesteryl ester transfer protein (CETP) inhibitor (compound No. 3 in Okamoto et al.^38) was dissolved in dimethlysulfonyl oxide (DMSO) (stock solution 2 mM): [drawing 1] A final volume of 400 μl assay system was prepared containing phosphatidylcholine, HDL, 3 μl of plasma, and 0-50 μM of the compound. Vesicles were subsequently precipitated by the addition of 300 μl of a solution of 500 mM NaCl, 215 mM MnCl2, 445 U/ml heparin, and the radioactivity of a 500-μl aliquot of the supernatant was measured.

Molecule: CCCC[C@@H](C=O)NC(=O)[C@H](CC(C)C)NC(=O)[C@H](CC(C)C)NC(C)=O [ALLN, N-acetyl-leu-leu-norleu-AL] (Ac-Leu-Leu-[Nle]-aldehyde)
- levels of apoB within cells [1]: increased levels of apoB within cells

Molecule: heparin
- accumulation of BLp in media ([2]; PLTP deficient hepatocytes): failed to increase BLp accumulation
- accumulation of BLp in media ([2]; hepatocytes from apoB transgenic mice): increased the accumulation of BLp in media

Molecule: CC(C)(C)C(=O)Nc1ccccc1SSc1ccccc1NC(=O)C(C)(C)C [compound #3]
- Ki [3]: 15 µM
